Reference: US6090787A, “Antithrombotic agents” (Eli Lilly and Company, priority 1999, dated 2000)

Key:
[1] = tested on: human plasma; assay: Human plasma anticoagulation, prothrombin time (PT); conditions: concentration required to double the PT, linear extrapolation
Experimental: (§1) Dog plasma and rat plasma is obtained from conscious mixed-breed hounds (either sex, Hazelton-LRE, Kalamazoo, Mich., U.S.A.) or from anesthetized male Sprague-Dawley rats (Harlan Sprague-Dawley, Inc., Indianapolis, Ind., U.S.A.) by venipuncture into 3.8 percent citrate. Fibrinogen is prepared from in-date ACD human blood as the fraction I-2 according to previous procedures and specifications. Smith, Biochem. J., 185, 1-11 (1980); and Smith, et al., Biochemistry, 11, 2958-2967 (1972). Human fibrinogen is also purchased as 98 percent pure/plasmin free from American Diagnostica, Greenwich, Conn. Coagulation reagents ACTIN, Thromboplastin, and Human plasma are from Baxter Healthcare Corp., Dade Division, Miami, Fla. Bovine thrombin from Parke-Davis ([…], Mich.) is used for coagulation assays in plasma.
(§2) Coagulation assay procedures are as previously described. Smith, et al., Thrombosis Research, 50, 163-174 (1988). A CoAScreener coagulation instrument (American LABor, Inc.) is used for all coagulation assay measurements. The prothrombin time (PT) is measured by adding 0.05 mL saline and 0.05 mL Thromboplastin-C reagent to 0.05 mL test plasma. The activated partial thromboplastin time (APTT) is measured by incubation of 0.05 mL test plasma with 0.05 mL Actin reagent for 120 seconds followed by 0.05 mL CaCl2 (0.02 M). The thrombin time (TT) is measured by adding 0.05 mL saline and 0.05 mL thrombin (10 NIH units/mL) to 0.05 mL test plasma. The compounds of formula I are added to human or animal plasma over a wide range of concentrations to determine prolongation effects on the APTT, PT, and TT assays. Linear extrapolations are performed to estimate the concentrations required to double the clotting time for each assay.

[2] = biological target: T1, tissue plasminogen activator (t-PA) (Homo sapiens, UniProt P00750); assay: Fibrinolytic protease selectivity, Kass, t-PA chromogenic assay; type: biochemical; conditions: apparent association constant
T1 construct: purchased American Diagnostica, Greenwich, Conn
T1 sequence (P00750 36-562): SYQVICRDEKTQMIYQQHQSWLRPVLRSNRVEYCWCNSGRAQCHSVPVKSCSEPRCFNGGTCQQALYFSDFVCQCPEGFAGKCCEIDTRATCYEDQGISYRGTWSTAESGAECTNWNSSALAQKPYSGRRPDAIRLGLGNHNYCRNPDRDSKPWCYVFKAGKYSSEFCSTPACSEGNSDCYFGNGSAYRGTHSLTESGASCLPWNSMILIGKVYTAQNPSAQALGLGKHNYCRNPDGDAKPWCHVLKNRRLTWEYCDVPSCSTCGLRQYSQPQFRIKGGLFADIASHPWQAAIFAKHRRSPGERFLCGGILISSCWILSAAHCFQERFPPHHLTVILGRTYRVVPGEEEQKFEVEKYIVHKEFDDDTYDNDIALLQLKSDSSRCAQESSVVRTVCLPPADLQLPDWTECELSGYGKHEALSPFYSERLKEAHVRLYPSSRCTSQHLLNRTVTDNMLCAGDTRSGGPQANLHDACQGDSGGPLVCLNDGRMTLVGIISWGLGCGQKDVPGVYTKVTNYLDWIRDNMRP
Experimental: (§3) By substantially following the procedures described above for human thrombin, and using other human blood coagulation system serine proteases and proteases of the fibrinolytic system with the appropriate chromogenic substrates, identified below, selectivity of the compounds of the present invention with respect to the coagulation factor serine proteases and with respect to the fibrinolytic system serine proteases are evaluated as well as their substantial lack of interference with serine proteases of the fibrinolytic system. Thrombin inhibitors preferably should spare fibrinolysis induced by urokinase, tissue plasminogen activator (t-PA) and streptokinase. This would be important to the therapeutic use of such agents as an adjunct to streptokinase, t-PA or urokinase thrombolytic therapy and to the use of such agents as an endogenous fibrinolysis-sparing (with respect to t-PA and urokinase) antithrombotic agent. In addition to the lack of interference with the amidase activity of the fibrinolytic proteases, such fibrinolytic system sparing can be studied by the use of human plasma clots and their lysis by the respective fibrinolytic plasminogen activators.
(§4) Human plasmin is purchased from Boehringer Mannheim, Indianapolis, Indiana; nt-PA is purchased as single chain activity reference from American Diagnostica, Greenwich, Conn.; modified-t-PA6 (mt-PA6) is prepared at Eli Lilly and Company by procedure known in the art (See, Burck, et al., J. Biol. Chem., 265, […] (1990). Plasmin chromogenic substrate H--D--Val--Leu--Lys--p--nitroanilide and tissue plasminogen activator (t-PA) substrate H--D--Ile--Pro--Arg--p--nitroanilide are purchased from Kabi Vitrum, Stockholm, Sweden.

[3] = biological target: T2, Bovine trypsin (Bos taurus, UniProt P00760); assay: Serine protease selectivity, Kass, trypsin chromogenic assay; type: biochemical; conditions: apparent association constant
T2 construct: purchased Worthington Biochemicals, Freehold, N.J
T2 sequence (P00760 24-246): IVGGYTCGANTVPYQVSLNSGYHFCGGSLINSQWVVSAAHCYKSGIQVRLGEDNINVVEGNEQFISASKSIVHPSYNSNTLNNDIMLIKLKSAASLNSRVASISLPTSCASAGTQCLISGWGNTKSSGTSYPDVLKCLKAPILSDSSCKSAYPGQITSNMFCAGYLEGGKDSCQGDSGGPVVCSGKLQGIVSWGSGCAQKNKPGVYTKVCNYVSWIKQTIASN
Experimental: as §3
(§5) Human factors X, Xa, IXa, XIa, and XIIa are purchased from Enzyme Research Laboratories, South Bend, Ind.; human urokinase from Leo Pharmaceuticals, Denmark; and recombinant activated Protein C (aPC) is prepared at Eli Lilly and Co. substantially according to U.S. Pat. No. 4,981,952 incorporated by reference herein in its entirety. Chromogenic substrates: N--Benzoyl--Ile--Glu--Gly--Arg--p--nitroanilide (for factor Xa); N--Cbz--D--Arg--Gly--Arg--p--nitroanilide (for factor IXa assay as the factor Xa substrate); Pyroglutamyl--Pro--Arg--p--nitroanilide (for Factor XIa and for aPC); H--D--Pro--Phe--Arg--p--nitroanilide (for factor XIIa); and Pyroglutamyl--Gly--Arg--p--nitroanilide (for urokinase); are purchased from KabiVitrum, Stockholm, Sweden, or from Midwest Biotech, Fishers, Indiana. Bovine trypsin is purchased from Worthington Biochemicals, Freehold, N.J., and human plasma kallikrein from Kabi Vitrum, Stockholm, Sweden. Chromogenic substrate H--D--Pro--Phe--Arg--p--nitroanilide for plasma kallikrein is purchased from Kabi Vitrum, Stockholm, Sweden. N--Benzoyl--Phe--Val--Arg--p--nitroanilide, the substrate for human thrombin and for trypsin, is synthesized according to procedures described above for the compounds of the present invention, using known methods of peptide coupling from commercially available reactants or purchased from Midwest Biotech, Fishers, Ind.

[4] = biological target: T3, factor Xa (Homo sapiens, UniProt P00742); assay: Serine protease selectivity, Kass, factor Xa chromogenic assay; type: biochemical; conditions: apparent association constant
T3 construct: Human factors X, Xa, IXa, XIa, and XIIa are purchased from Enzyme Research Laboratories; purchased Enzyme Research Laboratories, South Bend, Ind
T3 sequence (P00742 235-488 limits assumed): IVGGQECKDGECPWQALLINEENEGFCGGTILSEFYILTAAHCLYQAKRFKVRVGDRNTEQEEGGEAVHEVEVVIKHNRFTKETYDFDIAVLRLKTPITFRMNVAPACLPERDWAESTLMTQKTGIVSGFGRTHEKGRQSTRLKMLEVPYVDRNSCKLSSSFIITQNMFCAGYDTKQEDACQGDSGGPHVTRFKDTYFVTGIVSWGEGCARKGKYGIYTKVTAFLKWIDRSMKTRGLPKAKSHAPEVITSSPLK
T3 sequence (P00742 41-179 partner limits assumed): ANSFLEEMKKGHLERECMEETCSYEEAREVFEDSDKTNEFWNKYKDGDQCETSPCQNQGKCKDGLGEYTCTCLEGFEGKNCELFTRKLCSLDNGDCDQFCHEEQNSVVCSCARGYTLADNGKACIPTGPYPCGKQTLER
Experimental: as §3, §5

[5] = biological target: T4, human thrombin (Homo sapiens, UniProt P00734); assay: Inhibition of amidase activity of thrombin (Kass), chromogenic substrate; type: biochemical; conditions: apparent association constant, mean over a range of concentrations
T4 construct: purified human thrombin, Enzyme Research Laboratories; purchased Enzyme Research Laboratories, South Bend, Indiana
Experimental: The assay is carried out by mixing 50 μL buffer (0.03 M Tris, 0.15 M NaCl, pH 7.4) with 25 μL of bovine thrombin or human thrombin solution (0.21 mg/mL of thrombostat bovine thrombin, Parke-Davis, or purified human thrombin, Enzyme Research Laboratories, South Bend, Indiana, at about 8 NIH units/mL, in the same buffer) and 25 μL of test compound in a solvent (in 50% aqueous methanol, v:v). The 150 μL of an aqueous solution of the chromogenic substrate (at 0.25 mg/mL) are added and the rates of hydrolysis of the substrate are measured by monitoring the reactions at 405 nm for the release of p-nitroaniline. Standard curves are constructed by plotting free thrombin concentration against hydrolysis rate. The hydrolysis rates observed with test compounds are then converted to "free thrombin" values in the respective assays by use of the standard curves. The bound thrombin (bound to test compound) is calculated by subtracting the amount of free thrombin observed in each assay from the known initial amount of thrombin used in the assay. The amount of free inhibitor in each assay is calculated by subtracting the number of moles of bound thrombin from the number of moles of added inhibitor (test compound).
The Kass value is the hypothetical equilibrium constant for the reaction between thrombin and the test compound (I). [formula]
Kass is calculated for a range of concentrations of test compounds and the mean value is reported in units of liter per mole.

[6] = tested on: human plasma; assay: Human plasma anticoagulation, thrombin time (TT); conditions: concentration required to double the thrombin time, linear extrapolation
Experimental: as §1, §2

[7] = biological target: T5, Human plasmin (Homo sapiens, UniProt P00747); assay: Fibrinolytic protease selectivity, Kass, plasmin chromogenic assay; type: biochemical; conditions: apparent association constant
T5 construct: Human plasmin is purchased from Boehringer Mannheim; purchased Boehringer Mannheim, Indianapolis, Indiana
T5 sequence (P00747 581-810 limits assumed): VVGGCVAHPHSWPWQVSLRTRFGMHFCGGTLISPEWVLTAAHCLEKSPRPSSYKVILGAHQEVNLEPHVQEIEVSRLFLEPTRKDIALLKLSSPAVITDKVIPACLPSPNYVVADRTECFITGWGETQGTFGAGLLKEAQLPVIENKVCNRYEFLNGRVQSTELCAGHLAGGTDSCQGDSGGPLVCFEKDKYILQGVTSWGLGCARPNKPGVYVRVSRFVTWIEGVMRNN
T5 sequence (P00747 97-580 partner limits assumed): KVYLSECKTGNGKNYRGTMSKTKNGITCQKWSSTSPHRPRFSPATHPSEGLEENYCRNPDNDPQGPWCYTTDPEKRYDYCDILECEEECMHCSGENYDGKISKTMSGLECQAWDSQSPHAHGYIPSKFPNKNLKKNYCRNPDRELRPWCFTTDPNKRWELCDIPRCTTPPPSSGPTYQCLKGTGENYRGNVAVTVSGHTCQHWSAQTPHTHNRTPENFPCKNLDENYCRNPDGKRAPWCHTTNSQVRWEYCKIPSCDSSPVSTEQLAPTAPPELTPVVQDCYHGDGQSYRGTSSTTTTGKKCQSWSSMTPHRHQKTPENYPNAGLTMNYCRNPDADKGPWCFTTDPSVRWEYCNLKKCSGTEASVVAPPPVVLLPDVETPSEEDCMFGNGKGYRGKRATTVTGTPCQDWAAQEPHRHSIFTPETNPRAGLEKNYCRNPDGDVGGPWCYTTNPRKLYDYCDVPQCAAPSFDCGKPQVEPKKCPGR
Experimental: as §3, §4

[8] = tested on: human plasma; assay: Human plasma anticoagulation, activated partial thromboplastin time (APTT); conditions: concentration required to double the APTT, linear extrapolation
Experimental: as §1, §2

| SMILES | Human Plasma Anticoagulation 2 × Clotting time PT [1] | Enzyme Kass t-PA [2] [L/mol × 10^6] | Enzyme Kass Trypsin [3] [L/mol × 10^6] | Enzyme Kass Xa [4] [L/mol × 10^6] | Enzyme Kass Human Thrombin [5] [L/mol × 10^6] | Human Plasma Anticoagulation 2 × Clotting time TT [6] [ng/mL] | Enzyme Kass Plasmin [7] [L/mol × 10^6] | Human Plasma Anticoagulation 2 × Clotting time APTT [8] |
| --- | --- | --- | --- | --- | --- | --- | --- | --- |
| Cc1ccccc1N(CC(=O)N[C@H](C=O)CCCN=C(N)N)C(=O)[C@H]1CCCCN1.Cl.Cl [Example 12, D--hPro--N(o--Me--Ph)Gly--ArgH.2HCl] | 8,200 ng/mL | 0.0064 | 0.55 | 0.14 | 3.3 | 370 | 0.060 | 4,900 ng/mL |
| Cl.Cl.N=C(N)NCCC[C@@H](C=O)NC(=O)CN(CCC(=O)O)C(=O)[C@H]1CCCCN1 [Example 13, D--hPro--N(CH2 CH2 COOH)Gly--ArgH.2HCl] | 27,000 ng/mL | 0.001 | 0.48 | 0.051 | 0.83 | 800 | 0.015 | 21,000 ng/mL |
| Cl.Cl.N=C(N)NCCC[C@@H](C=O)NC(=O)CN(CCCC(=O)O)C(=O)[C@H]1CCCCN1 [Example 14, D--hPro--N(CH2 CH2 CH2 COOH)Gly--ArgH.2HCl] | 30,000 ng/mL | 0.001 | 0.60 | 0.062 | 1.2 | 700 | 0.016 | 20,000 ng/mL |
| Cl.Cl.N=C(N)NCCC[C@@H](C=O)NC(=O)CN(CCCCC(=O)O)C(=O)[C@H]1CCCCN1 [Example 15, D--hPro--N(CH2 CH2 CH2 CH2 COOH)Gly--ArgH.2HCl] | 21,000 ng/mL | 0.001 | 0.99 | 0.078 | 1.8 | 670 | 0.020 | 15,000 ng/mL |
| CCS(=O)(=O)N[C@H](Cc1ccccc1)C(=O)N(C)CC(=O)N[C@H](C=O)CCCNC(=N)N.Cl.Cl [Example 16, N-(ethylsulfonyl)-D-phenylalanyl-N-methylglycyl-L-argininal dihydrochloride] | 1,600 ng/mL | 1.2 | 22 | 3.3 | 37 | 30 | 1.5 | 1,200 ng/mL |
| CNCC(=O)N(CCc1ccccc1)CC(=O)N[C@H](C=O)CCCNC(=N)N.Cl.Cl [Example 17, Sar--N(CH2 CH2 Ph)Gly--ArgH.2HCl] | 2,700 ng/mL | 0.001 | 0.38 | 2.2 | 2.9 | 150 | 0.20 | 2,200 ng/mL |
| Cl.Cl.NC(N)=NCCC[C@@H](C=O)NC(=O)CN(CCc1ccccc1)C(=O)[C@H]1CCCN1 [Example 18, D--Pro--N(CH2 CH2 Ph)Gly--ArgH.2HCl] | 3,900 ng/mL | 0.001 | 1.1 | 0.47 | 5.1 | 170 | 0.34 | 3,300 ng/mL |
| Cl.Cl.N=C(N)NCCC[C@@H](C=O)NC(=O)CN(CCc1ccccc1)C(=O)[C@@H]1CCCN1 [Example 19, L--Pro--N(CH2 CH2 Ph)Gly--ArgH.2HCl] | 10,000 ng/mL | < 0.001 | 0.22 | 0.11 | 0.64 | 490 | 0.22 | 10,000 ng/mL |
